# According to publication PMC12169104, “Towards the development of supramolecular self-associating amphiphiles as antibiofilm agents against Pseudomonas aeruginosa and Candida albicans biofilms” (Journal of Materials Chemistry. B, 2025):
# Several values for one entry are separate records, joined by “and”; a condition that tells them apart may be missing. Equal entries are not always repeated. Marks after values point to notes of the source that are not given here.
# Key:
# [1] = 1H NMR dilution study, dimerization constant (EK model, Bindfit v0.5); format: physicochemical; settings: DMSO-d6/0.5% H2O, SSA anion dimerization
# From the text: The self-associative properties of SSAs 1–5, and co-formulations a–j, were studied using previously published methodologies, the results of which are summarised in Table 1.[44,45] Initially, we quantified the strength of homogeneous SSA anion self-association events, to confirm the effect of the squaramide – (thio)urea substitution. […] Complimentary ^1H NMR DOSY experiments conducted in DMSO-d6 0.5% H2O solutions at 298 K confirmed the SSA anion and cation components to diffuse at different rates, providing supporting evidence towards the lack of any strong ion pairing interactions between the SSA anionic and cationic components under these experimental conditions. […] The formation of SSA anionic dimers has also been shown in the solid state through single crystal X-ray diffraction experiments.[42,43,46] […] Here the SSA anion dimer is stabilised through the formation of four intermolecular squaramide-anion hydrogen bonds. Proton NMR spectroscopy dilution study data, obtained from a DMSO-d6 0.5% H2O solution, were then fitted to both the EK (the equal K single component linear self-associative or dimerization model) and CoEK (the cooperative equal K single component linear self-associative or dimerization model) self-association models using Bindfit v0.5.[47,48] […] The dimerization constants calculated confirm that substitution of the sulfonate ion (1 and 3) for the carboxylate ion (2) increase Kdim by approximately 50-fold. However, substituting the thiourea (2) for the squaramide (5) functionality increases the Kdim by a further 70-fold. Therefore, confirming our initial hypothesis, that incorporating the squaramide residue within the SSA anion structure would increase the strength of SSA anion self-association events.
# [2] = Membrane permeability and adhesion assay (1H CPMG NMR; PF and MAF); settings: SSA anion(s), 200 μM, 298 K; for MAF (membrane adhesion factor): error ±0.05 unless stated, MAF < 1 suggests adhesion; for PF (membrane permeation factor): error ±0.1 unless stated, PF > 1 suggests permeable
# From the text: Finally, in line with our previous work, we moved to characterise the membrane adhesion and permeation events of 1–5 and co-formulations a–j with PE : PG 1 : 1 synthetic phospholipid vesicles.[53] This vesicle composition was prioritised for further analysis as this composition acts as a model for an AMR resistant strain of the ESKAPE pathogen P. aeruginosa,[54,55] categorised as high priority by the WHO.[33] As summarised in Table 4, membrane permeation (PF) and membrane adhesion factors (MAF) for the SSA anionic components were calculated through the use of ^1H CPMG NMR spectroscopy experiments, using vesicles produced by extrusion through a 1000 nm polycarbonate membrane.
# Here the lower the MAF, the stronger the adhesion of the molecule to the surface of the phospholipid membrane. […] A PF value of 1 or above provides evidence of SSA permeation. The greater this value above 1, the greater the membrane permeation potential of a compound. […]
# Membrane permeability and adhesion assay, determining membrane adhesion factors (MAF) and permeation factors (PF): Lipid vesicles of DOPE and PG, in a 1:1 ratio by weight were prepared as described in ‘preparation of vesicles’ with one alteration. Here vesicles were extruded 21 times through a 1000 nm polycarbonate membrane. NMR samples were prepared containing: SSA ( 200 µM), 95% HEPES buffer (HEPES (10 mM), NaCl (10 mM)) and 5% D 2O, and sodium trimethylsilylpropanesulfonate - DSS (1 µM). In order to calculate the PF and MAF the paramagnetic relaxation enhancement agent (PRE), gadodiamide (1 mM) was added to the NMR mixture. Where lipid vesicles were present in the NMR mixture, vesi cles were added at a concentration of 0.1 mg/mL.
# All 1H CPMG NMR spectra were collected with a spin -lock time of 150 mS on a Bruker Avance III spectrometer equipped with a cold probe at a proton frequency of 600 MHz and recorded at 298 K.
# Peak intensities were measured using MestReNova (Mestrelab Research). The MAF and PF were determined using previously published method. 3 For individual SSAs, MAF and PF were calculated using all aromatic CH resonances. For SSA co -formulations an average MAF and PF were calculated using all aromatic CH resonances. For individual components of the SSA co -formulations, the resonances for the different SSA anions were treated independently of one another.
Compound,Kdim [1],MAF (membrane adhesion factor) [2],PF (membrane permeation factor) [2]
O=C(O)CNC(=S)Nc1ccc(C(F)(F)F)cc1 [SSA 2],105 M⁻¹,0.88,0.85
Cc1ccc2nc(-c3ccc(NC(=O)NCS(=O)(=O)O)cc3)sc2c1 [SSA 3],3 M⁻¹ and 2.7 M⁻¹,0.00,0.00
O=C(O)CNc1c(Nc2ccc(C(F)(F)F)cc2)c(=O)c1=O [SSA 5],7636 M⁻¹,0.38,0.67
O=c1c(NCCCS(=O)(=O)O)c(Nc2ccc(C(F)(F)F)cc2)c1=O [SSA 4],–,0.38,1.48 ^a
O=S(=O)(O)CCCNC(=S)Nc1ccc(C(F)(F)F)cc1 [SSA 1],3 M⁻¹ and 2.6 M⁻¹,0.94,1.01
